Source: patent US20250188040A1, “PHARMACEUTICAL COMPOSITIONS COMPRISING WRN HELICASE INHIBITORS” (Vividion Therapeutics, Inc., priority 2022, published 2025)
Where two headings read alike, the source gives them in different places.

Tests used:
[1] = target: hWRN(519-1227)_C-H3CV-GFP-10His (Homo sapiens, UniProt Q14191); test: Helicase Assay for WRN Inhibition (ATP-dependent, fluorescence based)
Protocol: Effects of compounds on WRN helicase activity were assessed with the Helicase Assay for WRN Inhibition. This is an ATP-dependent (inclusion of ATP is important and is required for this assay) fluorescence based assay using recombinant WRN and a fluorogenic DNA substrate.
WRN activity was normalized to signal from wells without WRN protein (background, 0% activity) and wells with protein treated only with DMSO (positive control, 10000 activity). For each compound the potency of inhibition (IC50) was determiined using Graphpad Prism.

SW480 cells = test: Cell growth assay (CellTiter-Glo 2.0), SW480 MSS cell line; conditions: read-out: Cell Growth Inhibition GI50 SW480
HCT 116 cells = test: Cell growth assay (CellTiter-Glo 2.0), HCT 116 MSI-H cell line; conditions: read-out: Cell Growth Inhibition GI50 HCT-116
[2] = read-out: WRN Helicase IC50, 30 min preincubation with ATP, 30 min reaction
[3] = HCT-116 (MSI-H), 5-day incubation
[4] = WRN Helicase IC50, 30 min preincubation with ATP, 30 min reaction

Sequence of hWRN(519-1227)_C-H3CV-GFP-10His (Q14191 519-1227): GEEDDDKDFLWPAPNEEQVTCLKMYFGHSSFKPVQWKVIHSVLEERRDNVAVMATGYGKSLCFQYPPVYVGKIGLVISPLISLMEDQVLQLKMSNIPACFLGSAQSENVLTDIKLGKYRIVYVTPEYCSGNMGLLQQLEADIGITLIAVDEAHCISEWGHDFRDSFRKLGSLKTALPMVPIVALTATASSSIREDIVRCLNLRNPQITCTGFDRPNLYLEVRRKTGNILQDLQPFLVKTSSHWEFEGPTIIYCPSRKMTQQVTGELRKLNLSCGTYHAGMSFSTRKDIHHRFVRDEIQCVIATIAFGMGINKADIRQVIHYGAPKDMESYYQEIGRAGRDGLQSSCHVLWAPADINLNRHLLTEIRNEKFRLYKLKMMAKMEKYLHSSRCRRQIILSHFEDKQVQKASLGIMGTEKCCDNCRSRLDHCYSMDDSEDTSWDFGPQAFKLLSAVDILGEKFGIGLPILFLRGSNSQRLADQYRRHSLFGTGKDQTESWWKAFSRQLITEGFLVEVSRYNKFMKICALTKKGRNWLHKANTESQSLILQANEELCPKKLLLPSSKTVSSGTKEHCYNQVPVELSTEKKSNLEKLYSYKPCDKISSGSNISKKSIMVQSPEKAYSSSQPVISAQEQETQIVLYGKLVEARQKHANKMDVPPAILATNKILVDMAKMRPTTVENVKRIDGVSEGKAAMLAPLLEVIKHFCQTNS

IC50 [1]	GI50 (SW480 cells; Homo sapiens, SW480, 120 h)	GI50 (HCT 116 cells; Homo sapiens, HCT-116, 120 h)	IC50 [1, 4]	Molecule	IC50 [1, 2]	GI50 (SW480 cells; SW480 (MSS), 5-day incubation)	GI50 (HCT 116 cells; [3])
7.2 µM	> 10 µM	8.5 µM		CC1C(=CC#N)CN1C(=O)c1cnc(C2CC2)nc1Oc1ccccc1 (racemic) [Example 265, 2-(1-(2-cyclopropyl-4-phenoxypyrimidine-5-carbonyl)-2-methylazetidin-3-ylidene)acetonitrile]			
	12 µM	0.086 µM	0.37 µM	CN(C)c1ncc(C(=O)N[C@H](/C=C/S(C)(=O)=O)C2CC2)c(Oc2ccccc2)n1 [Example 177, (S,E)-N-(1-cyclopropyl-3-(methylsulfonyl)allyl)-2-(dimethylamino)-4-phenoxypyrimidine-5-carboxamide]			
	45 µM	3.2 µM	15 µM	CNc1ncc(C(=O)N[C@H](/C=C/S(C)(=O)=O)C2CC2)c(Oc2ccccc2)n1 [Example 178, (S,E)-N-(1-cyclopropyl-3-(methylsulfonyl)allyl)-2-(methylamino)-4-phenoxypyrimidine-5-carboxamide]			
	7 µM	0.198 µM	1.04 µM	CCN(CC)c1ncc(C(=O)N[C@H](/C=C/S(C)(=O)=O)C2CC2)c(Oc2ccccc2)n1 [Example 179, (S,E)-N-(1-cyclopropyl-3-(methylsulfonyl)allyl)-2-(diethylamino)-4-phenoxypyrimidine-5-carboxamide]			
	3.4 µM	0.0582 µM	0.439 µM	CN(c1ncc(C(=O)N[C@H](/C=C/S(C)(=O)=O)C2CC2)c(Oc2ccccc2)n1)C1CC1 [Example 180, (S,E)-2-(cyclopropyl(methyl)amino)-N-(1-cyclopropyl-3-(methylsulfonyl)allyl)-4-phenoxypyrimidine-5-carboxamide]			
	13 µM	0.013 µM	0.058 µM	[2H]c1c([2H])c([2H])c(Oc2nc(C(F)(F)C3CC3)ncc2C(=O)N[C@H](/C=C/S(C)(=O)=O)C2CC2)c([2H])c1[2H] [Example 229, (S,E)-N-(1-cyclopropyl-3-(methylsulfonyl)allyl)-2-(cyclopropyldifluoromethyl)-4-(phenoxy-d5)pyrimidine-5-carboxamide]			
	6.1 µM	0.011 µM	0.056 µM	CS(=O)(=O)/C=C/[C@@H](NC(=O)c1ccc(C(F)(F)C2CC2)nc1Oc1ccccc1)C1CC1 [Example 234, (S,E)-N-(1-cyclopropyl-3-(methylsulfonyl)allyl)-6-(cyclopropyldifluoromethyl)-2-phenoxynicotinamide]			
	4.5 µM	0.012 µM	0.042 µM	CS(=O)(=O)/C=C/[C@@H](NC(=O)c1cc(F)c(C(F)(F)C2CC2)nc1Oc1ccccc1)C1CC1 [Example 236, (S,E)-N-(1-cyclopropyl-3-(methylsulfonyl)allyl)-6-(cyclopropyldifluoromethyl)-5-fluoro-2-phenoxynicotinamide]			
	> 10 µM	8.4 µM	12 µM	CSc1ncc(C(=O)NC/C=C/S(C)(=O)=O)c(Oc2ccccc2)n1 [Example 241, (E)-N-(3-(methylsulfonyl)allyl)-2-(methylthio)-4-phenoxypyrimidine-5-carboxamide]			
	> 10 µM	2.8 µM	9.8 µM	C[C@@H](/C=C/S(C)(=O)=O)NC(=O)c1cc2ccccc2nc1Oc1ccccc1 [Example 242, (S,E)-N-(4-(methylsulfonyl)but-3-en-2-yl)-2-phenoxyquinoline-3-carboxamide]			
	36 µM	0.14 µM	1.1 µM	CS(=O)(=O)/C=C/[C@@H](NC(=O)c1cnc(OC2CC2)nc1Oc1ccccc1)C1CC1 [Example 245, (S,E)-2-cyclopropoxy-N-(1-cyclopropyl-3-(methylsulfonyl)allyl)-4-phenoxypyrimidine-5-carboxamide]			
	16 µM	0.64 µM	8 µM	CS(=O)(=O)/C=C/[C@@H](NC(=O)c1cnc(OCC(F)(F)F)nc1Oc1ccccc1)C1CC1 [Example 246, (S,E)-N-(1-cyclopropyl-3-(methylsulfonyl)allyl)-4-phenoxy-2-(2,2,2-trifluoroethoxy)pyrimidine-5-carboxamide]			
	3 µM	1.7 µM	6.5 µM	Cc1cc(C(=O)N[C@@H](C)/C=C/S(C)(=O)=O)c(Oc2ccccc2)nc1C1CCCC1 [Example 262, (S,E)-6-cyclopentyl-5-methyl-N-(4-(methylsulfonyl)but-3-en-2-yl)-2-phenoxynicotinamide]			
	2.3 µM	1.4 µM	5.5 µM	C[C@@H](C#CC(=O)N(C)C)NC(=O)c1cnc(C(C)(F)F)nc1Oc1ccccc1 [Example 263, (S)-2-(1,1-difluoroethyl)-N-(5-(dimethylamino)-5-oxopent-3-yn-2-yl)-4-phenoxypyrimidine-5-carboxamide]			
	3.9 µM	3.5 µM	8 µM	C=C(CNC(=O)c1cnc(C2CC2)nc1Oc1ccccc1)S(C)(=O)=O [Example 287, 2-cyclopropyl-N-(2-(methylsulfonyl)allyl)-4-phenoxypyrimidine-5-carboxamide]			

More lines, now with the values behind:

Molecule	IC50 [1]	GI50 (SW480 cells; Homo sapiens, SW480, 120 h)	GI50 (HCT 116 cells; Homo sapiens, HCT-116, 120 h)	IC50 [1, 4]	IC50 [1, 2]	GI50 (SW480 cells; SW480 (MSS), 5-day incubation)	GI50 (HCT 116 cells; [3])
2-cyclopropyl-4-(((1R,2R)-2-fluorocyclohexyl)oxy)-N—((S,E)-4-(methylsulfonyl)but-3-en-2-yl)pyrimidine-5-carboxamide; or 2-cyclopropyl-4-(((1S,2S)-2-fluorocyclohexyl)oxy)-N—((S,E)-4-(methylsulfonyl)but-3-en-2-yl)pyrimidine-5-carboxamide [Example 149]					7.8 µM	> 10 µM	2.5 µM
CS(=O)(=O)C=CC1CN(C(=O)c2cnc(C3CC3)nc2Oc2ccccc2)C1 (racemic) [Example 22, (2-cyclopropyl-4-phenoxypyrimidin-5-yl)(3-(2-(methylsulfonyl)vinyl)azetidin-1-yl)methanone]	3.5 µM	6.1 µM	2.5 µM				
CN(C)C(=O)C[C@@H](/C=C/S(C)(=O)=O)NC(=O)c1cnc(C(C)(C)C)nc1Oc1ccccc1 [Example 71, (S,E)-2-(tert-butyl)-N-(5-(dimethylamino)-1-(methylsulfonyl)-5-oxopent-1-en-3-yl)-4-phenoxypyrimidine-5-carboxamide]		41.4 µM	0.11 µM	0.27 µM			
CC(F)(F)c1ncc(C(=O)N[C@H](/C=C/S(C)(=O)=O)CC(F)F)c(Oc2ccccc2)n1 [Example 90, (S,E)-N-(5,5-difluoro-1-(methylsulfonyl)pent-1-en-3-yl)-2-(1,1-difluoroethyl)-4-phenoxypyrimidine-5-carboxamide]		19.2 µM	0.327 µM	0.69 µM			
CC(F)(F)c1ncc(C(=O)N[C@H](/C=C/S(C)(=O)=O)C2CCC(F)(F)CC2)c(Oc2ccccc2)n1 [Example 91, (S,E)-N-(1-(4,4-difluorocyclohexyl)-3-(methylsulfonyl)allyl)-2-(1,1-difluoroethyl)-4-phenoxypyrimidine-5-carboxamide]		26.1 µM	0.252 µM	0.6 µM			
CC(F)(F)c1ncc(C(=O)N[C@H](/C=C/S(C)(=O)=O)COC2CC2)c(Oc2ccccc2)n1 [Example 97, (R,E)-N-(1-cyclopropoxy-4-(methylsulfonyl)but-3-en-2-yl)-2-(1,1-difluoroethyl)-4-phenoxypyrimidine-5-carboxamide]		40 µM	0.07 µM	0.22 µM			
CS(=O)(=O)/C=C/CNC(=O)c1cnc(C2CCCC2)nc1Oc1cccc(F)c1 [Example 111, (E)-2-cyclopentyl-4-(3-fluorophenoxy)-N-(3-(methylsulfonyl)allyl)pyrimidine-5-carboxamide]		> 10 µM	4.2 µM	3.8 µM			
CS(=O)(=O)/C=C/CNC(=O)c1cnc(C2CCCC2)nc1Oc1ccc(Cl)cc1 [Example 120, (E)-4-(4-chlorophenoxy)-2-cyclopentyl-N-(3-(methylsulfonyl)allyl)pyrimidine-5-carboxamide]		4.8 µM	4.3 µM	4.9 µM			
[2H]c1c([2H])c([2H])c(Oc2nc(C3CC3)ncc2C(=O)N[C@@H](C)/C=C/S(C)(=O)=O)c([2H])c1[2H] [Example 140]		32 µM	0.33 µM	1.9 µM			
C[C@@H](/C=C/S(C)(=O)=O)NC(=O)c1cnc(C2CC2)nc1OC12CCC(CC1)C2 [Example 143, (S,E)-4-(bicyclo[2.2.1]heptan-1-yloxy)-2-cyclopropyl-N-(4-(methylsulfonyl)but-3-en-2-yl)pyrimidine-5-carboxamide]		13 µM	3.4 µM	14 µM			
CC(F)(F)c1ncc(C(=O)N[C@H](/C=C/S(C)(=O)=O)C2CC2)c(O[C@@H]2C[C@@H]3C[C@@H]3C2)n1 [Example 158, 4-(((1R,3r,5S)-bicyclo[3.1.0]hexan-3-yl)oxy)-N—((S,E)-1-cyclopropyl-3-(methylsulfonyl)allyl)-2-(1,1-difluoroethyl)pyrimidine-5-carboxamide]		40 µM	0.36 µM	1.5 µM			
CC(C)(C)c1ncc(C(=O)NC/C=C/S(C)(=O)=O)c(O[C@H]2C[C@@H]3C[C@@H]3C2)n1 [Example 159, 4-(((1R,3s,5S)-bicyclo[3.1.0]hexan-3-yl)oxy)-2-(tert-butyl)-N—((E)-3-(methylsulfonyl)allyl)pyrimidine-5-carboxamide]					6.9 µM	12 µM	2.5 µM
C=C(C#N)[C@H](C)NC(=O)c1cnc(C(C)(F)F)nc1Oc1ccccc1 [Example 273/274, (S)—N-(3-cyanobut-3-en-2-yl)-2-(1,1-difluoroethyl)-4-phenoxypyrimidine-5-carboxamide/(R)—N-(3-cyanobut-3-en-2-yl)-2-(1,1-difluoroethyl)-4-phenoxypyrimidine-5-carboxamide]						16 µM	0.122 µM
